Experiments:
FasL [1] = assay: FasL expression at the cell surface by flow cytometry, Jurkat cells; assay type: cell-based; details: Jurkat human leukemia T cells, 100 μg/ml sequence, 48 h, treated vs control cells
Outline: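 Jurkat cells (2×10^5 cells/ml) were incubated 48 h at 37° C. with 0 or 100 μg/ml (5.5 μM) of the sequences. Surface Fas and FasL were stained with FITC anti-Fas and PE anti-FasL antibodies and measured by flow cytometry, expressed as % increase over control cells.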

Fas [2] = assay: Fas expression at the cell surface by flow cytometry, T-24 cells; assay type: cell-based, human; details: T-24 bladder cancer cells, 100 μg/ml sequence, 48 h, treated vs control cells
Outline: (§1)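 T-24 bladder cancer cells (p53-mutant, human) at 1.0×10^5 cells/ml were exposed for 48 h at 37 °C to 100 μg/ml […] of 6-base sequences or to no sequence. Fas and FasL were stained with FITC- and PE-labelled monoclonal antibodies and read by flow cytometry. Values are % increase versus untreated cells.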

FasL [3] = assay: FasL expression at the cell surface by flow cytometry, T-24 cells; assay type: cell-based, human; details: T-24 bladder cancer cells, 100 μg/ml sequence, 48 h, treated vs control cells
Outline: as §1

FasL [4] = assay: FasL expression at the cell surface by flow cytometry, UMUC-3 cells; assay type: cell-based, human; details: UMUC-3 bladder cancer cells, 100 μg/ml sequence, 48 h, treated vs control cells
Outline: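 Cells at 2×10^5 cells/ml treated 48 h at 37° C, 5% CO2 with 100 μg/ml (5.5 μM) sequence or 0 μg/ml control. Surface Fas (FITC) and FasL (PE) antibody-stained and read by flow cytometry. Values are % increase over control cells.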

Fas [5] = assay: Fas expression at the cell surface by flow cytometry, OVCAR-3 cells; assay type: cell-based, human; details: OVCAR-3 ovarian cancer cells, 100 μg/ml sequence, 48 h, treated vs control cells
Outline: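 OVCAR-3 cells (2×10^5 cells/ml) incubated 48 h at 37° C with 0 or 100 μg/ml (5.5 μM) of the sequences. Surface Fas and FasL stained with FITC- and PE-conjugated monoclonal antibodies, read by flow cytometry; values are % increase over untreated controls.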

FasL [6] = assay: FasL expression at the cell surface by flow cytometry, SK-OV-3 cells; assay type: cell-based, human; details: SK-OV-3 ovarian cancer cells, 100 μg/ml sequence, 48 h, treated vs control cells
Outline: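 Cells at 2×10^5 cells/ml were treated 48 h at 37 °C, 5% CO2 with 100 μg/ml (5.5 μM) sequence or none. Surface Fas and FasL were stained with FITC anti-Fas and PE anti-FasL antibodies and read by flow cytometry. Values are % increase in expression over untreated cells.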

Fas [7] = assay: Fas expression at the cell surface by flow cytometry, LNCaP cells; assay type: cell-based, human; details: LNCaP prostate cancer cells, 100 μg/ml sequence, 48 h, treated vs control cells
Outline: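 Cells at 2×10^5 cells/ml were treated 48 h at 37° C with 100 μg/ml (5.5 μM) of the sequences or left untreated. Surface Fas and FasL were stained with FITC anti-Fas and PE anti-FasL antibodies and measured by flow cytometry. Values are % increase in expression over control cells.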

Jurkat T leukemia cells = assay: Inhibition of Jurkat leukemia T cell proliferation (MTT reduction); assay type: cell-based, human; details: for % INHIBITION of cell proliferation: Jurkat, 48 h
Protocol: UMUC-3 bladder cancer cells were incubated for 48 hours with 0.00, 0.02 and 0.20 μg/ml of agonistic anti-Fas monoclonal antibodies (clone CH-11: Coulter-Immunotech, Marseille, France) +0 or 10 μg/ml of SEQ ID NO:5. Cell proliferation was measured using dimethylthiazol-diphenyltetrazolium (MTT) reduction (Mosman et al. J. Immunol. Methods 65:55, 1983). MTT was measured at a wavelength of 570 nm using a multiplate spectrophotometer reader (ELX800, Bio-TEK Instruments Inc., Winooski, Vt.).
Jurkat T leukemia cells were incubated for 48 hours with 0.00, 0.02 and 0.20 μg/ml of agonistic anti-Fas monoclonal antibodies (clone CH-11) +0 and 10 μg/ml of SEQ ID NO:5. Cell proliferation was measured as in Example 13.

[8] = tested on: EL-4 murine T lymphoma cells; assay: EL-4 murine T lymphoma implanted in C57/BL6 lpr/lpr mice; assay type: in vivo
Protocol: EL-4 murine T lymphoma cells are implanted into C57/BL6 lpr/lpr (Fas negative mice). The mice are divided into 30 groups of 10 mice. On day 0, group 1 mice receive saline, group 2 mice receive 1, 10 or 100 mg/kg of SEQ. ID NO:5, group 3 mice receive 1, 10 or 100 mg/kg of SEQ. ID NO:16, group 4 receive 1, 10 or 100 mg/kg of SEQ. ID NO:17, group 5 mice receive 1, 10 or 100 mg/kg of SEQ. ID NO: 18, group 6 mice receive anti-Fas antibodies, group 7 mice receive 1, 10 or 100 mg/kg of SEQ. ID NO:5 +anti-Fas antibodies, group 8 mice receive 1, 10 or 100 mg/kg of SEQ. ID NO: 16 +anti-Fas antibodies, group 9 receive 1, 10 or 100 mg/kg of SEQ. ID NO:17 +anti-Fas antibodies, group 10 mice receive 1, 10 or 100 mg/kg of SEQ. ID NO:18 +anti-Fas antibodies. In these different groups, anti-Fas antibodies are administered at any dose in the range of about 0.003 to about 0.3 mg/kg. […] The efficacy of the SEQ. ID NO:5, the SEQ. ID NO: 16 and the SEQ. ID NO: 17 is dose-dependent.

Sequence: GGGTGG [SEQ ID NO:5]
- % INCREASE FasL (FasL [1]): 145%
- % INCREASE Fas (Fas [2]): 80%
- % INCREASE FasL (FasL [3]): 13%
- % INCREASE FasL (FasL [4]): 143%
- % INCREASE Fas (Fas [5]): 43%
- % INCREASE FasL (FasL [6]): −31%
- % INCREASE Fas (Fas [7]): 15%
- combined effect with agonistic anti-Fas antibodies on cell proliferation (Jurkat T leukemia cells; Jurkat T cells, 0.02 and 0.2 μg/ml anti-Fas antibodies, 10 μg/ml sequence): additive
- % INHIBITION of cell proliferation (Jurkat T leukemia cells; 10 μg/ml sequence + anti-Fas antibodies 0.02 μg/ml): 28%
- % INHIBITION of cell proliferation (Jurkat T leukemia cells; 10 μg/ml sequence + anti-Fas antibodies 0.2 μg/ml): 48%
- % INHIBITION of cell proliferation (Jurkat T leukemia cells; 10 μg/ml sequence, anti-Fas antibodies 0.0 μg/ml): 16%
- efficacy, dose dependence ([8]; 1, 10 or 100 mg/kg): dose-dependent
- tumor mass ([8]; sequence 1, 10 or 100 mg/kg + anti-Fas antibodies, vs all other groups): least tumor mass
- tumor mass ([8]; single agent (sequence 1, 10 or 100 mg/kg, or anti-Fas antibodies) vs group 1 (saline)): less tumor mass

Source: patent US20020091095A1, “Modulation of Fas and FasL expression” (priority 1999, published 2002)
